Measured values: ChEMBL document CHEMBL1201862, “PubChem BioAssay data set” (2004)
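Results reflect a 48-hour exposure of cells in 96-well plates to compound at five concentrations. At the GI50, growth is halved.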 Calls of active or inactive are those of the source. Cut-off read from the data, not from the text of the source: active = GI50 up to about 1.1 µM and inactive = higher.

Legend:
Assay in all cases: DTP human tumour cell line panel, 48 h
BT-549 = system: BT-549
HOP-92 = system: HOP-92
HT-29 = system: HT-29
ACHN = system: ACHN
HCC 2998 = system: HCC 2998
A549 = system: A549
NCI/ADR-RES = system: NCI/ADR-RES
COLO 205 = system: COLO 205
NCI-H460 = system: NCI-H460
SK-OV-3 = system: SK-OV-3
PC-3 = system: PC-3
SK-MEL-28 = system: SK-MEL-28
SF-539 = system: SF-539
NCI-H522 = system: NCI-H522
MDA-MB-435 = system: MDA-MB-435
SF-268 = system: SF-268
KM12 = system: KM12
UACC-257 = system: UACC-257
MOLT-4 = system: MOLT-4

Structure (SMILES)	GI50 (BT-549)	GI50 (HOP-92)	GI50 (HT-29)	GI50 (ACHN)	GI50 (HCC 2998)	GI50 (A549)	GI50 (NCI/ADR-RES)	GI50 (COLO 205)	GI50 (NCI-H460)	GI50 (SK-OV-3)	GI50 (PC-3)	GI50 (SK-MEL-28)	GI50 (SF-539)	GI50 (NCI-H522)	GI50 (MDA-MB-435)	GI50 (SF-268)	GI50 (KM12)	GI50 (UACC-257)	GI50 (MOLT-4)
Cc1ccc(C)c2c1n1c(=O)n(C)c(=O)n21	> 100 µM (inactive)	> 100 µM (inactive)	> 100 µM (inactive)	> 100 µM (inactive)	> 100 µM (inactive)	> 100 µM (inactive)	> 100 µM (inactive)	> 100 µM (inactive)	> 100 µM (inactive)	> 100 µM (inactive)	> 100 µM (inactive)	> 100 µM (inactive)	> 100 µM (inactive)	> 100 µM (inactive)	> 100 µM (inactive)	> 100 µM (inactive)	> 100 µM (inactive)	> 100 µM (inactive)	–
CC1(C)C(C(=O)OC(C#N)c2cccc(OCC(=O)OCc3ccccc3)c2)C1(C)C (stereo unspecified)	> 100 µM (inactive)	> 100 µM (inactive)	> 100 µM (inactive)	> 100 µM (inactive)	–	> 100 µM (inactive)	81.5 µM (inactive)	> 100 µM (inactive)	> 100 µM (inactive)	> 100 µM (inactive)	> 100 µM (inactive)	63.2 µM (inactive)	> 100 µM (inactive)	> 100 µM (inactive)	> 100 µM (inactive)	> 100 µM (inactive)	> 100 µM (inactive)	55.6 µM (inactive)	18 µM (inactive)
O=c1c2ccccc2nnn1-c1n[nH]c2ccccc12	> 100 µM (inactive)	> 100 µM (inactive)	63.4 µM (inactive)	> 100 µM (inactive)	> 100 µM (inactive)	> 100 µM (inactive)	> 100 µM (inactive)	> 100 µM (inactive)	> 100 µM (inactive)	–	> 100 µM (inactive)	> 100 µM (inactive)	> 100 µM (inactive)	> 100 µM (inactive)	> 100 µM (inactive)	> 100 µM (inactive)	> 100 µM (inactive)	> 100 µM (inactive)	–
O=C(CN1CCCC1)Nc1ccc2c(c1)C1Oc3ccccc3CC1CO2 (stereo unspecified)	19.4 µM (inactive)	16.7 µM (inactive)	> 10 µM (inactive)	–	16.8 µM (inactive)	41.7 µM (inactive)	73.3 µM (inactive)	14 µM (inactive)	–	> 100 µM (inactive)	24.8 µM (inactive)	–	18.8 µM (inactive)	32.4 µM (inactive)	22.2 µM (inactive)	67 µM (inactive)	43.4 µM (inactive)	21.2 µM (inactive)	31.4 µM (inactive)
CC[C@H](C)[C@@H]([C@@H](CC(=O)N1CCC[C@H]1[C@H](OC)[C@@H](C)C(=O)NCCc1ccccc1)OC)N(C)C(=O)C(NC(=O)[C@H](C(C)C)N(C)C)C(C)C (stereo partly specified)	0.000588 µM (active)	0.0069 µM (active)	8.89e-05 µM (active)	0.000757 µM (active)	0.000266 µM (active)	0.000248 µM (active)	0.00736 µM (active)	9.16e-05 µM (active)	0.000211 µM (active)	–	0.000119 µM (active)	> 10 µM (inactive)	0.000232 µM (active)	5.83e-05 µM (active)	3.18e-05 µM (active)	0.000658 µM (active)	8.57e-05 µM (active)	0.00139 µM (active)	0.000132 µM (active)
Nc1nc(N)c(/N=N/c2ccc(C(=O)O)c(O)c2)c(N)n1	> 100 µM (inactive)	92.5 µM (inactive)	> 100 µM (inactive)	> 100 µM (inactive)	–	> 100 µM (inactive)	> 100 µM (inactive)	> 100 µM (inactive)	> 100 µM (inactive)	> 100 µM (inactive)	> 100 µM (inactive)	> 100 µM (inactive)	> 100 µM (inactive)	26.8 µM (inactive)	> 100 µM (inactive)	> 100 µM (inactive)	> 100 µM (inactive)	> 100 µM (inactive)	> 100 µM (inactive)
O=c1c2cc(I)ccc2nc(-c2cccs2)n1/N=C/c1ccccc1	> 100 µM (inactive)	> 100 µM (inactive)	> 100 µM (inactive)	> 100 µM (inactive)	> 100 µM (inactive)	> 100 µM (inactive)	> 100 µM (inactive)	> 100 µM (inactive)	> 100 µM (inactive)	> 100 µM (inactive)	> 100 µM (inactive)	> 100 µM (inactive)	> 100 µM (inactive)	> 100 µM (inactive)	> 100 µM (inactive)	> 100 µM (inactive)	> 100 µM (inactive)	79.1 µM (inactive)	–
NC(Cc1ccc(O)c(O)c1)P(=O)(O)O (stereo unspecified)	> 100 µM (inactive)	> 100 µM (inactive)	> 100 µM (inactive)	> 100 µM (inactive)	> 100 µM (inactive)	> 100 µM (inactive)	> 100 µM (inactive)	> 10 µM (inactive)	> 100 µM (inactive)	–	> 100 µM (inactive)	> 100 µM (inactive)	> 100 µM (inactive)	4.75 µM (inactive)	> 100 µM (inactive)	> 100 µM (inactive)	> 100 µM (inactive)	> 100 µM (inactive)	> 100 µM (inactive)
